Reference: ChEMBL document CHEMBL5465560, “Selectivity Literature for EUbOPEN Chemogenomic Library” (2024)
One block for each molecule: values may come before it.

Experiments:
[1] = target: Serine/threonine-protein kinase N2 (Homo sapiens, UniProt Q16513); assay: Selectivity interaction (LanthaScreen Eu Kinase Binding Assay) EUB0001632a PKN2; details: at 10 µM
[2] = target: G protein-coupled receptor kinase 4 (Homo sapiens) (UniProt P32298); assay: Selectivity interaction (KinomeScan (DiscoverX)) EUB0000666a GRK4; details: at 10 µM
Sequence of G protein-coupled receptor kinase 4 (Homo sapiens) (P32298 whole entry, looked up): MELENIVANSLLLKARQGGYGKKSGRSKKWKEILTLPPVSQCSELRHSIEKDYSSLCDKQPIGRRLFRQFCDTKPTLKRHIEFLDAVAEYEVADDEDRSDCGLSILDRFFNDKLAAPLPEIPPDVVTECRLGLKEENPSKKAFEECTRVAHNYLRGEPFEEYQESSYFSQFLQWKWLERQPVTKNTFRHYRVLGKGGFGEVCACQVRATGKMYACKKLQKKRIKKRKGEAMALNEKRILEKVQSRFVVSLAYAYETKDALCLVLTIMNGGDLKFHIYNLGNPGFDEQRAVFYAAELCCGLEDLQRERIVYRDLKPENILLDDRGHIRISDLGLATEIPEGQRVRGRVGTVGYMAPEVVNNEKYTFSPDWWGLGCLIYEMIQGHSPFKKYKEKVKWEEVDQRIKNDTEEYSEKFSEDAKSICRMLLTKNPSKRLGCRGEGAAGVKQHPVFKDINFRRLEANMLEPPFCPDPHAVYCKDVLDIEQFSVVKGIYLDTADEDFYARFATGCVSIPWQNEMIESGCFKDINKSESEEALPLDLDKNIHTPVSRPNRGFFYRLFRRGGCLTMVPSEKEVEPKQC

[3] = target: T1, NUAK family SNF1-like kinase 2 (Homo sapiens) (UniProt Q9H093); assay: Selectivity interaction (KinomeScan (DiscoverX)) EUB0000666a NUAK2; details: at 10 µM
T1 sequence (whole entry): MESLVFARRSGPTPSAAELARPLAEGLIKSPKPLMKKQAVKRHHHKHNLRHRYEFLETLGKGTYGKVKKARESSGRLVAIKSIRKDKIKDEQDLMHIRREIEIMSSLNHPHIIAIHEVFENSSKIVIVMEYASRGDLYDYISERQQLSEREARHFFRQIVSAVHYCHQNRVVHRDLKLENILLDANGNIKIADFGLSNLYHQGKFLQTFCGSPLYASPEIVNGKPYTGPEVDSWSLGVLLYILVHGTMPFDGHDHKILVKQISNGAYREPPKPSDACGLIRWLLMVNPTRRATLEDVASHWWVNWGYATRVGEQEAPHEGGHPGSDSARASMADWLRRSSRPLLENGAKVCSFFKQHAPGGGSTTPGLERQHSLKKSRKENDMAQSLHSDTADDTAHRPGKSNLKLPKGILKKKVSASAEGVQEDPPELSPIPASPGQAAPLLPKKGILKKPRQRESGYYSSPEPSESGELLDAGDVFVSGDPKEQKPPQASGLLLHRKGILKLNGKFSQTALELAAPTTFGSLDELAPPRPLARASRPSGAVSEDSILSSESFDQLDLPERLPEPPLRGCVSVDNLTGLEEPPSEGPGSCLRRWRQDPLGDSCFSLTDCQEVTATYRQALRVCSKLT

[4] = target: Serine/threonine-protein kinase PAK 2 (Homo sapiens) (UniProt Q13177); assay: Selectivity interaction (SelectScreen profiling (Invitrogen)) EUB0000607a PAK2; details: at 2 µM
Sequence of Serine/threonine-protein kinase PAK 2 (Homo sapiens) (Q13177 whole entry): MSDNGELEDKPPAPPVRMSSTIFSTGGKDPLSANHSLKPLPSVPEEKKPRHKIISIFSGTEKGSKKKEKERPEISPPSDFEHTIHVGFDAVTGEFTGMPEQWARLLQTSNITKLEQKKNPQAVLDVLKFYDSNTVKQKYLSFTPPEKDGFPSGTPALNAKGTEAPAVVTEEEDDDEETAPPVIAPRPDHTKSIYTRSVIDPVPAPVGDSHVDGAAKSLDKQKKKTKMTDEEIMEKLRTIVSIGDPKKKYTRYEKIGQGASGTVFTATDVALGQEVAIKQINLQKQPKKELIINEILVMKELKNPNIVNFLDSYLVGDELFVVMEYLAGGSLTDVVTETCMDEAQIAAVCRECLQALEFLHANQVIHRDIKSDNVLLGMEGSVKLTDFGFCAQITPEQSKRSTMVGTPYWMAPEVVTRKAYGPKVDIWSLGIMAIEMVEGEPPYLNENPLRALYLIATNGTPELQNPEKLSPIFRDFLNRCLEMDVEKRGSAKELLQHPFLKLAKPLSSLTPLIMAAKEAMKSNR

[5] = target: Vascular endothelial growth factor receptor 1 (Homo sapiens) (UniProt P17948); assay: Selectivity interaction (KinomeScan (DiscoverX)) EUB0000699a FLT1; details: at 10 µM
[6] = target: Tyrosine-protein kinase CSK (Homo sapiens) (UniProt P41240); assay: Selectivity interaction (ActivX KiNativ screen (kinase selectivity in THP-1 cell lysates)) EUB0000639a CSK; assay type: subcellular; details: lysate
Sequence of Tyrosine-protein kinase CSK (Homo sapiens) (P41240 2-450 limits assumed): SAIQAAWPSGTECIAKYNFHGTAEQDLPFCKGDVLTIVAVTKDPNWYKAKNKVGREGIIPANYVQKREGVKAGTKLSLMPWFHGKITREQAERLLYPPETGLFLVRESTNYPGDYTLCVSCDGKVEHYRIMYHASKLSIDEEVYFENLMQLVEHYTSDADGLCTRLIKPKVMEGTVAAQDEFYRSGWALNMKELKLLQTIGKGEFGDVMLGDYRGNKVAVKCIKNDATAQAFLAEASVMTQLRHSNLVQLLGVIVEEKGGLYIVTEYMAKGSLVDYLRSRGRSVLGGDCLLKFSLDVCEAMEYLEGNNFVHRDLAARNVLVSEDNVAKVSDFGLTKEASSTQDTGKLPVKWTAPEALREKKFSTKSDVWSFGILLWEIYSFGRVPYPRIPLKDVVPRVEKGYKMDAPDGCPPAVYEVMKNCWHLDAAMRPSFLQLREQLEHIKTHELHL

[7] = target: T2, Myosin light chain kinase (Homo sapiens) (UniProt Q32MK0); assay: Selectivity interaction (KinomeScan (DiscoverX)) EUB0001049a MYLK3; details: at 1 µM
T2 sequence (whole entry): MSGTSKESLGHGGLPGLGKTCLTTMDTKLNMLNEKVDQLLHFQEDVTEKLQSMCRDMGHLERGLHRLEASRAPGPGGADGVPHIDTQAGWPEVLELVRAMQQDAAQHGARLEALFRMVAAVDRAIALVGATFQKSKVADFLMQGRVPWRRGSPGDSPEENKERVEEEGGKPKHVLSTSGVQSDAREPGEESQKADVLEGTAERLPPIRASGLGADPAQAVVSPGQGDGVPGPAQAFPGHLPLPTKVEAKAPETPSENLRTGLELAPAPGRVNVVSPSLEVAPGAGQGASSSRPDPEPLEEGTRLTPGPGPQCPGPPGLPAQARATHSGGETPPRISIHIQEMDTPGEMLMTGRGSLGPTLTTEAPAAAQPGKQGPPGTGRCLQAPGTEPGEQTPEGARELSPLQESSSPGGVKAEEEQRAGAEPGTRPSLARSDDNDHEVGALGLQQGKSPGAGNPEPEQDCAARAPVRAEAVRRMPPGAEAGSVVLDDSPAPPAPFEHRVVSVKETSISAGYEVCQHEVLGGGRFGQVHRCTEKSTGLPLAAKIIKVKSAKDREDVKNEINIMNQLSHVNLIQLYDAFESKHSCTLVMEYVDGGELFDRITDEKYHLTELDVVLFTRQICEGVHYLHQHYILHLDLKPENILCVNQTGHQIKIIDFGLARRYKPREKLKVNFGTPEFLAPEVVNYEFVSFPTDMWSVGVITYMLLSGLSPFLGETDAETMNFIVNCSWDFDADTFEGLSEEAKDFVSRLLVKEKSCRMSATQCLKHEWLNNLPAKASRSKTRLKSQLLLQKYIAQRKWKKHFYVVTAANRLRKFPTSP

[8] = target: Dual specificity protein kinase CLK3 (Homo sapiens, UniProt P49761); assay: Selectivity interaction (KinomeScan (DiscoverX)) EUB0000655a CLK3; details: at 10 µM
[9] = target: Tyrosine-protein kinase JAK1 (Homo sapiens, UniProt P23458); assay: Selectivity interaction (KinomeScan (DiscoverX)) EUB0001079a JAK1; details: at 1 µM
[10] = target: Tyrosine-protein kinase receptor Tie-1 (Homo sapiens) (UniProt P35590); details: at 10 µM
Sequence of Tyrosine-protein kinase receptor Tie-1 (Homo sapiens) (P35590 whole entry): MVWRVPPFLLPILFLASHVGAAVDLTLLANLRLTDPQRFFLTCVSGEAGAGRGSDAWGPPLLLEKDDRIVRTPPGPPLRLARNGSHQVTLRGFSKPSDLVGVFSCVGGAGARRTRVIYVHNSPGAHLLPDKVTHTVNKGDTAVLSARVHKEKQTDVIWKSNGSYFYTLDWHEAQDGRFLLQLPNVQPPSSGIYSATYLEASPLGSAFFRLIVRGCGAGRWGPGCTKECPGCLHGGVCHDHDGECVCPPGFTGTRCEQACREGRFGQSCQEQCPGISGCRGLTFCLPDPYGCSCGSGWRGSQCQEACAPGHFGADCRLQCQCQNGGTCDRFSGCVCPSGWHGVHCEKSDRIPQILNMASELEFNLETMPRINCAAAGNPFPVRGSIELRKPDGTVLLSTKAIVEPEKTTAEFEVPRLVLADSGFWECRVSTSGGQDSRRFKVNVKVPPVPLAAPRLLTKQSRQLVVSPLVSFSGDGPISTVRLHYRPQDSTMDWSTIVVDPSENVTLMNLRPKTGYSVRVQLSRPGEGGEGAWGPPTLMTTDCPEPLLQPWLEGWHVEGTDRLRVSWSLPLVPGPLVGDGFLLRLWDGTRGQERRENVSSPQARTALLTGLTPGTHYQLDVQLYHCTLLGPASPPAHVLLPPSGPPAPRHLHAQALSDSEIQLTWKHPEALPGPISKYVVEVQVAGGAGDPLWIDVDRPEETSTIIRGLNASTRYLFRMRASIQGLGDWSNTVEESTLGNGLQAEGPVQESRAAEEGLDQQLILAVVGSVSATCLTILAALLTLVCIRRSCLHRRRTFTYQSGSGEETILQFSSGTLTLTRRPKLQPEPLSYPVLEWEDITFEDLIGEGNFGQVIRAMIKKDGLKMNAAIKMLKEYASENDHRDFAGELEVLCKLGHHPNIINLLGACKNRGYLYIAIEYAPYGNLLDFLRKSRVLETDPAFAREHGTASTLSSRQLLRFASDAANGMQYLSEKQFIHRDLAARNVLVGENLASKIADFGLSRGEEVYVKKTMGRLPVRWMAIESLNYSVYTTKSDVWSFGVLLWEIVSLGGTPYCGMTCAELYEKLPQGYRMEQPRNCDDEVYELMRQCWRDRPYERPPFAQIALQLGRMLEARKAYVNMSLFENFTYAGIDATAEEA

[11] = target: Serine/threonine-protein kinase Nek4 (Homo sapiens) (UniProt P51957); assay: Selectivity interaction (KinomeScan (DiscoverX)) EUB0000618a NEK4; details: at 10 µM
Sequence of Serine/threonine-protein kinase Nek4 (Homo sapiens) (P51957 whole entry, looked up): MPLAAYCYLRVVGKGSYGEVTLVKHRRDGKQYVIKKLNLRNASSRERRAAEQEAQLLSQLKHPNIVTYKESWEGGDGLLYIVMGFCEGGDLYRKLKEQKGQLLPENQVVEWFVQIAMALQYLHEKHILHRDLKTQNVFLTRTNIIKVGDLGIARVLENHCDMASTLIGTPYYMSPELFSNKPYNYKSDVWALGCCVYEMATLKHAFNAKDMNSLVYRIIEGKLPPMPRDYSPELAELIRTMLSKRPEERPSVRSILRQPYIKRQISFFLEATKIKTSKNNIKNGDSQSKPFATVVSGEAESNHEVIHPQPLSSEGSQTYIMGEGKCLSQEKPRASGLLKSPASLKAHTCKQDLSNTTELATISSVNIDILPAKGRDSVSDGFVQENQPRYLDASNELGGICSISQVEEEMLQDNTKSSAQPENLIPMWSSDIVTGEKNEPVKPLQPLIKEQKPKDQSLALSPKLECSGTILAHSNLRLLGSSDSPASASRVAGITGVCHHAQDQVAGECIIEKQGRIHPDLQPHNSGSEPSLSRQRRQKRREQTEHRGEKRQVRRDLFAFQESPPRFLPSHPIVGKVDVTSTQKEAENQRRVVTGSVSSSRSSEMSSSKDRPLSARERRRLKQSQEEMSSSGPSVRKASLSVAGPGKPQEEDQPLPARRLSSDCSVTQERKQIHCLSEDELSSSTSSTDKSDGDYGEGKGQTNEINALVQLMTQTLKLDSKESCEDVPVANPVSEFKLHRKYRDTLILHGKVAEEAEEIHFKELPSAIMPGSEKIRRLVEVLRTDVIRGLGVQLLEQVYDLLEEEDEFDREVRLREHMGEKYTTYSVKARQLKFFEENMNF

[12] = target: SRSF protein kinase 1 (Homo sapiens, UniProt Q96SB4); assay: Selectivity interaction (KinomeScan (DiscoverX)) EUB0001619a SRPK1; details: at 1 µM
[13] = target: T3, Serine/threonine-protein kinase 3 (Homo sapiens) (UniProt Q13188); assay: Selectivity interaction (ActivX KiNativ screen (ex vivo kinase selectivity in human PBMCs)) EUB0001619a STK3; assay type: cell-based; details: PBMC, at 1 µM
T3 sequence (whole entry): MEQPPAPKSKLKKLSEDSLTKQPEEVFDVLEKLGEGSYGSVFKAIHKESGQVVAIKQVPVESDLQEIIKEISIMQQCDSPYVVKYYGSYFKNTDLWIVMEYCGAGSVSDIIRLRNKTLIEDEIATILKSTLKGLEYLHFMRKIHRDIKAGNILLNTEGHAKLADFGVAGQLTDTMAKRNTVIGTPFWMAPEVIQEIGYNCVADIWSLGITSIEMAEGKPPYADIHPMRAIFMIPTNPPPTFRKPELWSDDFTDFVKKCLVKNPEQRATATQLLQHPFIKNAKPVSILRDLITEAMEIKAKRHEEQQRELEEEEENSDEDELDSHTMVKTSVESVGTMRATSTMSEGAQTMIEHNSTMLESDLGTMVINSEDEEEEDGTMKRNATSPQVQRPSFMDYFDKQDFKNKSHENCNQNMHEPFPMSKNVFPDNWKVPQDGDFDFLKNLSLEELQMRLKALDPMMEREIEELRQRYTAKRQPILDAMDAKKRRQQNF

[14] = target: Mitogen-activated protein kinase kinase kinase kinase 4 (Homo sapiens, UniProt O95819); assay: Selectivity interaction (KinomeScan (DiscoverX)) EUB0001619a MAP4K4; details: at 1 µM
Sequence of Mitogen-activated protein kinase kinase kinase kinase 4 (O95819 2-1239 limits assumed): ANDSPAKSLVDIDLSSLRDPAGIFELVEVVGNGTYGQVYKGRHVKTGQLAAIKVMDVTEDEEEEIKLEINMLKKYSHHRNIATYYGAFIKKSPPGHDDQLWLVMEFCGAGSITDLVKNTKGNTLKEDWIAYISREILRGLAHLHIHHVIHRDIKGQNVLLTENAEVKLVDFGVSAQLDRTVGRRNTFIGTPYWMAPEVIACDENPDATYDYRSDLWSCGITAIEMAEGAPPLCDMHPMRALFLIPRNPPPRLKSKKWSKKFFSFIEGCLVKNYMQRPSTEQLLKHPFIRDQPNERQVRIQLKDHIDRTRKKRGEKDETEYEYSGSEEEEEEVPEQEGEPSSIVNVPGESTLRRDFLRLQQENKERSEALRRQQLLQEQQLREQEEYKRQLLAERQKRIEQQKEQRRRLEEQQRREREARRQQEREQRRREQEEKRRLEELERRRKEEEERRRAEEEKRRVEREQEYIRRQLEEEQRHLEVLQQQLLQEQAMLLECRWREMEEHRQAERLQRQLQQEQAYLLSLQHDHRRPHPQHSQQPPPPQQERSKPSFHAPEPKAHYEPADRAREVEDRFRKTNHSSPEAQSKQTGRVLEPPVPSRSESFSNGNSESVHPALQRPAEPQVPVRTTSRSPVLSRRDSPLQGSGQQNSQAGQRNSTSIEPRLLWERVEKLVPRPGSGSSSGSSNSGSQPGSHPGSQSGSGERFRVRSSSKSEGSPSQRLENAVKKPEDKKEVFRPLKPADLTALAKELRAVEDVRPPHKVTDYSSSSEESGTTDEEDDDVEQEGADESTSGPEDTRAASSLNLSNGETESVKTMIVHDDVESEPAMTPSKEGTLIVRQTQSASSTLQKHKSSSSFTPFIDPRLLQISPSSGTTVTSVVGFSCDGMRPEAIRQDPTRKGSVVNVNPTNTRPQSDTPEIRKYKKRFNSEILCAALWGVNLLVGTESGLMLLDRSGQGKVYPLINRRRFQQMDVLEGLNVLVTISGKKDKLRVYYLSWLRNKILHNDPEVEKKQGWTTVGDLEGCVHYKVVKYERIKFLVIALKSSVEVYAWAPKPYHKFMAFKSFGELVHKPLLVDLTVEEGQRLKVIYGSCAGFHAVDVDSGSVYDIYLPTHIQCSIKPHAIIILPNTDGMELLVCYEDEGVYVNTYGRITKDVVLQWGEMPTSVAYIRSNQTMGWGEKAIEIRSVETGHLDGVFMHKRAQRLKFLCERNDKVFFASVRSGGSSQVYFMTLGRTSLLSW

% of inhibition [1]: -5.46%
Structure (SMILES): Cn1cc(-n2cnc3c(NCc4nc5cc(Cl)c(Cl)cc5[nH]4)nc(N4CCOCC4)nc32)cn1

Structure (SMILES): O=C(NOC[C@H](O)CO)c1ccc(F)c(F)c1Nc1ccc(I)cc1F
% of control [2]: 100%
% of control [3]: 99%

Structure (SMILES): CNC(=O)Nc1ccc(-c2nc(N3CC4CCC(C3)O4)c3cnn(C4CCC5(CC4)OCCO5)c3n2)cc1
% of inhibition [4]: 15%

% of control [5]: 8%
Structure (SMILES): CCN(CC)CCCCNc1ncc2cc(-c3cc(OC)cc(OC)c3)c(NC(=O)NC(C)(C)C)nc2n1

% of inhibition ([6]; at 0.01 µM): 4.3%
% of inhibition ([6]; at 0.04 µM): -0.3%
% of inhibition ([6]; at 0.2 µM): -3.8%
% of inhibition ([6]; at 1 µM): 10.3%
% of inhibition ([6]; at 5 µM): -8.3%
Structure (SMILES): CC[C@@H]1[C@H](F)C(=O)N[C@@H]1COc1nccc2cc(C(N)=O)c(OC)cc12 [ZIMLOVISERTIB]

Structure (SMILES): COc1cc(Nc2nc(C)cc(-c3cnn4nc(OC)ccc34)n2)cc(C(F)(F)F)c1
% of control [7]: 82%

Structure (SMILES): CN(C)CCOc1ccc(-c2nc(-c3ccncc3)c(-c3ccc4c(c3)CC/C4=N\O)[nH]2)cc1
% of control [8]: 98%

Structure (SMILES): Nc1cnc(N2CCc3cc(S(=O)(=O)Nc4c(F)cc(Cl)cc4F)cc(N4CCCC4=O)c32)nc1 [TP-020n]
% of control [9]: 100%

Structure (SMILES): Cc1cc([C@@H](C)Nc2ccccc2C(=O)O)c2nc(N3CCOCC3)cc(=O)n2c1 [AZD-6482]
% of control [10]: 100%

Structure (SMILES): O[C@H]1CC[C@H](Nc2ncc3nc(Nc4c(F)cc(F)cc4F)n([C@H]4CCOC4)c3n2)CC1
% of control [11]: 100%

Structure (SMILES): N#Cc1cccc(-c2c[nH]c3ncnc(N4CCOCC4)c23)c1
% of control [12]: 25%
% of inhibition [13]: 69%
% of control [14]: 71%
